Results reported in ChEMBL document CHEMBL1201862, “PubChem BioAssay data set” (2004).
Values joined by “and” are separate entries in the source; they are usually repeats but may differ in a detail not shown here. Equal entries are not always repeated.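 The compound was tested at five concentrations on cells cultured in 96-well plates, with a 48-hour exposure period. GI50 marks 50% less growth.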 Active and inactive are the calls of the source. No stated cut-off is given here; in the data, active = GI50 up to about 1.1 µM and inactive = higher. Starred links: 1 amine or outer side, 2 acyl side, 3 side chain; linkers in the order of their positions; H or OH if unused. Positions of bridges follow the written chain, without caps; N, C: chain ends. Non-standard residues stand in square brackets, D forms with d. Residues, ends and D or L forms follow the SMILES beside them. Chains are numbered I, II in the order given. Actinocin(9to1) = Cc1c2oc3c(C)ccc(C(=O)[*:1])c3nc-2c(C(=O)[*:2])c(N)c1=O; NMeF = CN[CH](Cc1ccccc1)C(=O)O; Sar = CNCC(=O)O

Tests used:
Test in all cases: NCI-60 cell line screen, 48 h
786-0 = tested on: 786-0
A498 = tested on: A498
A549 = tested on: A549
ACHN = tested on: ACHN
BT-549 = tested on: BT-549
CAKI-1 = tested on: CAKI-1
COLO 205 = tested on: COLO 205
DU-145 = tested on: DU-145
EKVX = tested on: EKVX
HCC 2998 = tested on: HCC 2998
HCT-116 = tested on: HCT-116
HCT-15 = tested on: HCT-15
HOP-62 = tested on: HOP-62
HOP-92 = tested on: HOP-92
HT-29 = tested on: HT-29
Hs-578T = tested on: Hs-578T
IGROV-1 = tested on: IGROV-1
K562 = tested on: K562
KM12 = tested on: KM12
LOX IMVI = tested on: LOX IMVI
M14 = tested on: M14
MCF7 = tested on: MCF7
MDA-MB-231 = tested on: MDA-MB-231
MDA-MB-435 = tested on: MDA-MB-435
MDA-N = tested on: MDA-N
MOLT-4 = tested on: MOLT-4
Malme-3M = tested on: Malme-3M
NCI-H226 = tested on: NCI-H226
NCI-H23 = tested on: NCI-H23
NCI-H460 = tested on: NCI-H460
NCI-H522 = tested on: NCI-H522
NCI/ADR-RES = tested on: NCI/ADR-RES
OVCAR-3 = tested on: OVCAR-3
OVCAR-4 = tested on: OVCAR-4
OVCAR-5 = tested on: OVCAR-5
OVCAR-8 = tested on: OVCAR-8
PC-3 = tested on: PC-3
RPMI-8226 = tested on: RPMI-8226
RXF 393 = tested on: RXF 393
SF-268 = tested on: SF-268
SF-295 = tested on: SF-295
SF-539 = tested on: SF-539
SK-MEL-28 = tested on: SK-MEL-28
SK-MEL-2 = tested on: SK-MEL-2
SK-MEL-5 = tested on: SK-MEL-5
SK-OV-3 = tested on: SK-OV-3
SN12C = tested on: SN12C
SNB-19 = tested on: SNB-19
SNB-75 = tested on: SNB-75
SW-620 = tested on: SW-620
TK-10 = tested on: TK-10
U-251 = tested on: U-251
UACC-257 = tested on: UACC-257
UACC-62 = tested on: UACC-62
UO-31 = tested on: UO-31
CCRF-CEM = tested on: CCRF-CEM
HL-60 = tested on: HL-60
SR = tested on: SR
T47D = tested on: T47D

Measured: GI50

CCOC(=O)c1cn2c(n1)sc1cc(OC)ccc12
inactive: 786-0 6.21 µM | A498 46.3 µM | A549 7.38 µM | ACHN 8.75 µM | BT-549 > 69.7 µM | CAKI-1 13.5 µM | COLO 205 3.4 µM | DU-145 4.07 µM | EKVX > 53.3 µM | HCC 2998 31 µM | HCT-116 5.42 µM | HOP-62 13 µM | HOP-92 > 100 µM | HT-29 2.82 µM | Hs-578T 21 µM | IGROV-1 26.7 µM | K562 3.75 µM | KM12 3.34 µM | LOX IMVI 18.2 µM | M14 5.28 µM | MCF7 5.13 µM | MDA-MB-231 37.3 µM | MDA-MB-435 1.18 µM | MDA-N 2.6 µM | MOLT-4 4.61 µM | Malme-3M 27.6 µM | NCI-H226 25.1 µM | NCI-H23 > 47.5 µM | NCI-H460 29.8 µM | NCI-H522 18 µM | NCI/ADR-RES 19.5 µM | OVCAR-3 3.85 µM | OVCAR-4 > 100 µM | OVCAR-5 14.7 µM | OVCAR-8 6.21 µM | PC-3 15.2 µM | RPMI-8226 4.08 µM | RXF 393 13.8 µM | SF-268 27.4 µM | SF-295 7.18 µM | SF-539 2.95 µM | SK-MEL-28 > 100 µM | SK-MEL-2 14.9 µM | SK-MEL-5 2.72 µM | SK-OV-3 30.1 µM | SN12C 7.41 µM | SNB-19 9.82 µM | SNB-75 33.2 µM | SW-620 3.08 µM | TK-10 > 100 µM | U-251 2.81 µM | UACC-257 80.9 µM | UACC-62 8.63 µM | UO-31 10.9 µM
3.89 µM: HCT-15

O=C(c1ccccc1)c1cc(-c2ccccc2)c(-c2ccccc2)[nH]c(=O)c1=O
inactive: 786-0 > 100 µM | A498 77.4 µM | A549 41.7 µM | ACHN 63.5 µM | BT-549 22.5 µM | CAKI-1 30.9 µM | CCRF-CEM 15.2 µM | COLO 205 27.2 µM | EKVX 33.7 µM | HCC 2998 26.9 µM | HCT-116 35.2 µM | HL-60 15.7 µM | HOP-62 59.6 µM | HOP-92 41.1 µM | HT-29 36.6 µM | Hs-578T 40.9 µM | IGROV-1 60 µM | K562 32.6 µM | KM12 35.8 µM | LOX IMVI 34.5 µM | M14 41.2 µM | MCF7 31.5 µM | MDA-MB-231 > 100 µM | MDA-MB-435 30.5 µM | MDA-N 38.5 µM | MOLT-4 24.2 µM | Malme-3M 49.3 µM | NCI-H226 43.4 µM | NCI-H23 19 µM | NCI-H460 34 µM | NCI-H522 22.1 µM | NCI/ADR-RES 33.7 µM | OVCAR-3 35.6 µM | OVCAR-4 33.7 µM | OVCAR-5 54.2 µM | OVCAR-8 37.4 µM | PC-3 36.6 µM | RPMI-8226 23.9 µM | SF-268 50.5 µM | SF-295 40.7 µM | SF-539 31.3 µM | SK-MEL-28 42.2 µM | SK-MEL-2 24.3 µM | SK-MEL-5 31.6 µM | SK-OV-3 > 100 µM | SN12C 35.2 µM | SNB-19 64.6 µM | SR 24.1 µM | SW-620 37.2 µM | TK-10 56.2 µM | U-251 37.8 µM | UACC-257 41.5 µM | UACC-62 25.1 µM | UO-31 35.8 µM
28.3 µM: HCT-15

O=C1c2cc(Cc3ccccc3)c(=O)c(Cc3ccccc3)cc2C(=O)c2cc(Cc3ccccc3)c(=O)c(Cc3ccccc3)cc21
inactive: 786-0 > 100 µM | A498 > 100 µM | A549 > 100 µM | ACHN > 100 µM | BT-549 > 100 µM | CAKI-1 > 100 µM | CCRF-CEM 74.5 µM | COLO 205 > 100 µM | DU-145 > 100 µM | EKVX > 100 µM | HCC 2998 > 100 µM | HCT-116 > 100 µM | HL-60 > 100 µM | HOP-62 > 100 µM | HOP-92 > 100 µM | HT-29 > 100 µM | Hs-578T > 100 µM | IGROV-1 > 100 µM | K562 89.9 µM | KM12 > 100 µM | LOX IMVI > 100 µM | M14 > 100 µM | MCF7 > 100 µM | MDA-MB-231 > 100 µM | MDA-MB-435 > 100 µM | MDA-N > 100 µM | MOLT-4 97.3 µM | Malme-3M > 100 µM | NCI-H226 > 100 µM | NCI-H23 > 100 µM | NCI-H460 > 100 µM | NCI-H522 > 100 µM | NCI/ADR-RES > 100 µM | OVCAR-3 > 100 µM | OVCAR-4 > 100 µM | OVCAR-5 > 100 µM | OVCAR-8 > 100 µM | PC-3 > 100 µM | RPMI-8226 > 100 µM | RXF 393 24.4 µM | SF-268 > 100 µM | SF-295 > 100 µM | SF-539 > 100 µM | SK-MEL-28 > 100 µM | SK-MEL-2 > 100 µM | SK-MEL-5 > 100 µM | SN12C > 100 µM | SNB-19 > 100 µM | SNB-75 > 100 µM | SR > 100 µM | SW-620 > 100 µM | TK-10 > 100 µM | U-251 > 100 µM | UACC-257 > 100 µM | UO-31 > 100 µM
> 100 µM: HCT-15

COc1ccc(-c2c(C#N)c(-c3ccc(C)cc3)n(NS(=O)(=O)c3ccccc3)c(=O)c2C#N)cc1
39.3 µM: HCT-15
inactive: 786-0 51.5 µM | A498 59 µM | A549 45.9 µM | ACHN 45 µM | BT-549 25.2 µM | CAKI-1 74.1 µM | CCRF-CEM 23 µM | COLO 205 > 100 µM | EKVX 53.5 µM | HCC 2998 45.8 µM | HCT-116 42.6 µM | HL-60 19 µM | HOP-62 51.3 µM | HOP-92 38.8 µM | HT-29 47.5 µM | Hs-578T 33.7 µM | IGROV-1 35.5 µM | K562 60.4 µM | KM12 46.3 µM | LOX IMVI 30.3 µM | M14 48.6 µM | MCF7 28.9 µM | MDA-MB-231 > 100 µM | MDA-MB-435 73.6 µM | MDA-N 70.8 µM | MOLT-4 19 µM | Malme-3M > 100 µM | NCI-H226 > 100 µM | NCI-H460 45.8 µM | NCI-H522 87.7 µM | NCI/ADR-RES 41.5 µM | OVCAR-3 30.9 µM | OVCAR-4 37.8 µM | OVCAR-5 > 100 µM | OVCAR-8 58.1 µM | PC-3 35 µM | RPMI-8226 13.3 µM | RXF 393 36.2 µM | SF-268 80.4 µM | SF-295 32.7 µM | SF-539 36.6 µM | SK-MEL-28 48.1 µM | SK-MEL-2 50.8 µM | SK-MEL-5 19.5 µM | SK-OV-3 84.3 µM | SN12C 65.3 µM | SNB-19 58.5 µM | SNB-75 > 100 µM | SW-620 46.7 µM | TK-10 79.8 µM | U-251 42.2 µM | UACC-257 > 100 µM | UACC-62 38.5 µM

Cc1c2oc3c(C)ccc(C(=O)NC4C(=O)NC(C(C)C)C(=O)N5CCCC5C(=O)N(C)CC(=O)N(C)C(Cc5ccccc5)C(=O)OC4C)c3nc-2c(C(=O)NC2C(=O)NC(C(C)C)C(=O)N3CCCC3C(=O)N(C)CC(=O)N(C)C(Cc3ccccc3)C(=O)OC2C)c(N)c1=O (configuration not stated) (I: TVP[Sar][NMeF] / II: TVP[Sar][NMeF]; ester I:1-I:C, II:1-II:C; linker I:N-II:N via Actinocin(9to1); configuration not given here)
active: A498 0.0108 µM | ACHN 0.00989 µM | BT-549 0.0189 µM | CAKI-1 < 10 nM and 17.3 nM | DU-145 0.00807 µM | HCC 2998 0.00887 µM | HOP-62 < 10 nM and 9.31 nM | HOP-92 < 10 nM and 14.9 nM | Hs-578T < 10 nM and 7.24 nM | KM12 0.00504 µM | M14 < 10 nM and 19.6 nM | MDA-MB-435 < 10 nM and 6.21 nM | Malme-3M < 10 nM and 6.65 nM | NCI-H226 < 10 nM and 16.5 nM | NCI-H23 < 10 nM and < 11.1 nM | OVCAR-3 < 10 nM and 12.9 nM | OVCAR-4 < 10 nM and 6.64 nM | OVCAR-8 0.0127 µM | PC-3 0.0112 µM | RPMI-8226 < 10 nM and 9.95 nM | RXF 393 < 10 nM and 12.5 nM | SF-268 < 10 nM and 9.29 nM | SF-295 < 10 nM and 10.8 nM | SF-539 < 10 nM and 5.64 nM | SK-MEL-28 < 10 nM and 7.33 nM | SK-MEL-2 0.00957 µM | SK-MEL-5 < 10 nM and 6 nM | SK-OV-3 0.0157 µM | SNB-75 < 10 nM and 7.11 nM | SW-620 < 10 nM and 6.17 nM | T47D 5.21 nM | UACC-257 < 10 nM and 12.8 nM
